Test results reported in patent publication US20230364419A1, “USE OF E[…] ENHANCE THE DELIVERY OF PHARMACEUTICAL AGENTS AND OTHER […] THE SURFACE MUCOSA AND WALL OF THE URETER AND RENAL PELVIS, AND INTO THE RENAL PARENCHYMA” (priority 2022, published 2023).
Entries after “also recorded” stand apart in the source; their conditions may differ.

Experiments:
[1] = Porcine ureteral EMDA proof-of-concept study: methylene blue infused through the ureteral catheter with or without current; format: in vivo, Yorkshire pigs; conditions: for microscopic penetration of methylene blue into the ureteral wall (frozen section / histopathology): 20 min, infusion 5 ml/min
From the text: Cystoscopy is used to place a 0.035 in. guidewire into the ureter and up into the renal pelvis. The cystoscope is removed and the EMDA delivery catheter is advanced over the 0.035-inch super-stiff guidewire into the ureter up to the level of the ureteropelvic junction (i.e., not into the renal pelvis). A fluoroscopic image is obtained to confirm the correct position of the catheter in the ureter with the proximal tip just inside the renal pelvis. The 0.035 in. guidewire is removed and the silver wire is passed into the EMDA catheter. The circumference of the tip of silver wire (connected to positive electrode of EMDA generator) is larger than the exit hole in the distal tip of the EMDA catheter and thus its passage stops at the catheter’s tip and occludes the end-hole, thereby preventing any flow of instilled fluid from the tip of the catheter. A dispersing electrode (negative) is placed on the flank area. The EMDA is then activated and the fluid containing the intended medication is instilled at 5 ml/min via a drug infusion pump for 20 minutes.
An electrical current of 10 mA is used to achieve a current density of less than 0.5 mA/cm^2. This value was obtained based on prior work in other areas with regard to the safety and efficacy of EMDA. The ureteral surface was multiplied [20 cm (length)×(circumference≈1 cm) ≈20 cm^2] by 0.5 mA/cm^2. A pulsed or direct current can be used during EMDA.
As proof of concept, a porcine study was performed (IACUC approved protocol: 21-131). A charged molecule, methylene blue, was instilled which is suitable for EMDA because of its net positive charge, small molecular size, and strong blue color. Via the EMDA catheter, a pulsed electrical current of 10 mA was applied for 20 minutes during instillation of the methylene blue solution The pigs were then euthanized and both ureters were harvested. Visually, the difference in the color density in the experimental (EMDA ureter) and control ureter (without EMDA) was apparent.
Two Yorkshire pigs were placed under general anesthesia. Cystoscopy was used to place a 0.035 in. super-stiff™ guidewire into each ureter. A prefabricated ureteral catheter with equidistant (5 mm) fenestrations in three rows was advanced into each ureter. A silver wire was then passed into each ureteral catheter; the circumference of the silver wire was larger than the terminal opening in the catheter such that its passage stopped at the catheter’s tip, thereby preventing any flow of instilled fluid from the tip of the catheter. Methylene blue, a heterocyclic aromatic dye with a net positive charge, was infused through each catheter at a rate of 5 ml/min. In the experimental ureter, a positive pulsed electrical current of 10 mA was applied using a Physionizer® EDMA device. […]

[2] = Methylene blue infusion into the renal pelvis with or without EMDA activation; format: in vivo
Experimental: In another example, cystoscopy was used to place a 0.035 in. guidewire into the ureter and pass it up into the renal pelvis. The cystoscope is removed and a 5 to 15 Fr pigtail catheter is advanced over the guidewire; the guidewire is removed. A retrograde pyelogram is performed and the fluid is then drained from the renal pelvis and measured in order to obtain the volume of the renal pelvis. The guidewire is replaced and the pigtail catheter is removed and the EMDA delivery catheter is advanced over the guidewire into the ureter. A fluoroscopic image is obtained to confirm the correct position of the catheter with the proximal tip inside the renal pelvis. The guidewire is removed and the catheter assumes its nonintubated “C” shape along its proximal end; the silver wire is passed into the EMDA catheter (alternatively a pre-assembled catheter will be deployed via a preplaced ureteral access sheath) following the “C” shape of the distal end of the catheter.
For renal pelvis EMDA, an electrical current of 4 mA (using a dedicated EMDA generator) is used in the C-shape catheter to achieve a current density of less than 0.5 mA/cm^2. This value is obtained based on prior work in the bladder with regard to the safety and efficacy of EMDA; the collecting system surface (8 cm^2) was multiplied by 0.5 mA/cm^2. A pulsed current is used during EMDA; however, direct current is also applicable.

Which “microscopic penetration of methylene blue into the ureteral wall (frozen section / histopathology)” value ([1]; control ureter, without EMDA) does the source give for `CN(C)c1ccc2nc3ccc(=[N+](C)C)cc-3sc2c1` [methylene blue] here?
The value was “only patchy staining of the urothelium; also recorded: minimal, patchy staining of the urothelial lining with negligible penetration of methylene blue beyond the urothelium; also recorded: patchy methylene blue staining was seen only on the urothelium with negligible deeper penetration”.

What about the “microscopic penetration of methylene blue into the ureteral wall (frozen section / histopathology)” value ([1]; experimental ureter, with EMDA, pulsed current 10 mA) of the same molecule?
The value was “could be delivered beyond the urothelium and deeply into the wall of the ureter; also recorded: dense blue staining of the urothelium; also recorded: penetration of methylene blue throughout the wall of the EMDA treated ureter; also recorded: diffuse penetration of methylene blue into the urothelium, lamina propria, muscularis propria, and periureteral tissue”.

And the “macroscopic staining of the interior surface of the ureter” value ([1]; with EMDA)?
The value was “intense staining of the experimental ureter”.

And the “macroscopic staining of the interior surface of the ureter” value ([1]; without EMDA)?
Its value is “minimal staining of the urothelial lining”.

And the “macroscopic staining of the renal pelvis” value ([2]; with EMDA activation)?
Its value is “Intense staining of the renal pelvis”.

What about the “microscopic staining of urothelium and submucosa of the renal pelvis” value ([2]; with EMDA activation) of the same molecule?
Its value is “Deep blue staining of urothelium and the submucosa of the renal pelvis”.

What about the “tissue injury of the renal pelvis (H&E staining)” value ([2]; with EMDA activation) of the same molecule?
Its value is “normal architecture with no signs of acute injury”.

And the “macroscopic staining of the renal pelvis” value ([2]; without EMDA activation)?
Its value is “Faint staining of the renal pelvis”.

And the “microscopic staining of urothelium and submucosa of the renal pelvis” value ([2]; without EMDA activation)?
The value was “Blue staining of urothelium with less intensity and negligible methylene blue staining the submucosa of the renal pelvis”.

What about the “tissue injury of the renal pelvis (H&E staining)” value ([2]; without EMDA activation) of the same molecule?
Its value is “normal architecture with no evidence of injury”.
